Literature values as cited in US20240225064A1, “METHOD FOR MASS-PRODUCING SWEETENER HAVING TASTE QUALITY SIMILAR TO THAT OF SUGAR AND HAVING D-ALLULOSE FUNCTIONALITY” (NATIONAL UNIVERSITY CORPORATION KAGAWA UNIVERSITY, priority 2021, published 2024).
Where two headings read alike, the source gives them in different places.

Columns and labels:
[1] = content in sweetener
[2] = not given; remark: listed apart in the source

SMILES | sweetness of D-fructose relative to sucrose (at 40° C.) | sweetness of D-fructose relative to sucrose (at high temperatures) | D-allulose content at which the function of suppressing rapid absorption of a saccharide appears [1] | acute oral toxicity test [2] | sweetness degree (sweetness intensity) (assuming that the sweetness degree of sugar is 100) | sweetness degree relative to sugar (of that of sugar)
O=C(CO)[C@@H](O)[C@H](O)[C@H](O)CO [D-fructose] | equal thereto | 60% | – | – | – | –
O=C(CO)[C@H](O)[C@H](O)[C@H](O)CO [D-allulose] | – | – | ≥ 5 mass % | ≥ 5,000 mg/kg | 70 | about 70%
